Measurements published in ChEMBL document CHEMBL4622932, “Design, synthesis and biological evaluation of new Myo-inositol derivatives as potential RAS inhibitors” (Bioorg Med Chem Lett, 2020).

Key:
[1] = tested on: MCF7; test: Antiproliferative activity against human MCF7 cells reduction in cell viability measured after 48 hrs by MTT assay; format: functional, cell-based
[2] = tested on: HEK-293T; test: Cytotoxicity against human 293T cells assessed as reduction in cell viability measured after 48 hrs by MTT assay; format: cell-based
[3] = biological target: GTPase KRas (Homo sapiens) (UniProt P01116); test: Inhibition of KRAS in human MDA-MB-231 cells assessed as reduction in Pan RAS protein level at 15 uM measured after 24 hrs by Western blot analysis relative to control; format: cell-based
[4] = biological target: GTPase KRas (Homo sapiens) (UniProt P01116); test: Inhibition of KRAS in human MDA-MB-231 cells assessed as reduction in phosphorylated RAF-1 E1 protein level at 15 uM measured after 24 hrs by Western blot analysis relative to control; format: cell-based
[5] = biological target: GTPase KRas (Homo sapiens) (UniProt P01116); test: Inhibition of KRAS in human MDA-MB-231 cells assessed as reduction in ERK1/2 137F5 protein level at 15 uM measured after 24 hrs by Western blot analysis relative to control; format: cell-based
[6] = biological target: GTPase KRas (Homo sapiens) (UniProt P01116); test: Inhibition of KRAS in human MDA-MB-231 cells assessed as reduction in phosphorylated RAF-1 E1 protein level at 25 uM measured after 24 hrs by Western blot analysis relative to control; format: cell-based
[7] = biological target: GTPase KRas (Homo sapiens) (UniProt P01116); test: Inhibition of KRAS in human MDA-MB-231 cells assessed as reduction in phosphorylated MEK1/2 at Ser217/221 residues protein level at 25 uM measured after 24 hrs by Western blot analysis relative to control; format: cell-based
[8] = biological target: GTPase KRas (Homo sapiens) (UniProt P01116); test: Inhibition of KRAS in human MDA-MB-231 cells assessed as reduction in phosphorylated ERK1/2 at Thr185/Tyr187 residues protein level at 25 uM measured after 24 hrs by Western blot analysis relative to control; format: cell-based
[9] = biological target: GTPase KRas (Homo sapiens) (UniProt P01116); test: Inhibition of KRAS in human MDA-MB-231 cells assessed as reduction in Pan RAS protein level at 35 uM measured after 24 hrs by Western blot analysis relative to control; format: cell-based
[10] = biological target: GTPase KRas (Homo sapiens) (UniProt P01116); test: Inhibition of KRAS in human MDA-MB-231 cells assessed as reduction in phosphorylated RAF-1 E1 protein level at 35 uM measured after 24 hrs by Western blot analysis relative to control; format: cell-based
[11] = biological target: GTPase KRas (Homo sapiens) (UniProt P01116); test: Inhibition of KRAS in human MCF7 cells assessed as reduction in phosphorylated RAF-1 E1 protein level at 15 uM measured after 24 hrs by Western blot analysis relative to control; format: cell-based
[12] = biological target: GTPase KRas (Homo sapiens) (UniProt P01116); test: Inhibition of KRAS in human MCF7 cells assessed as reduction in phosphorylated MEK1/2 at Ser217/221 residues protein level at 15 uM measured after 24 hrs by Western blot analysis relative to control; format: cell-based
[13] = biological target: GTPase KRas (Homo sapiens) (UniProt P01116); test: Inhibition of KRAS in human MCF7 cells assessed as reduction in MEK1/2 9G3 protein level at 25 uM measured after 24 hrs by Western blot analysis relative to control; format: cell-based
[14] = biological target: GTPase KRas (Homo sapiens) (UniProt P01116); test: Inhibition of KRAS in human MCF7 cells assessed as reduction in phosphorylated MEK1/2 at Ser217/221 residues protein level at 25 uM measured after 24 hrs by Western blot analysis relative to control; format: cell-based
[15] = biological target: GTPase KRas (Homo sapiens) (UniProt P01116); test: Inhibition of KRAS in human MCF7 cells assessed as reduction in phosphorylated ERK1/2 at Thr185/Tyr187 residues protein level at 25 uM measured after 24 hrs by Western blot analysis relative to control; format: cell-based
[16] = biological target: GTPase KRas (Homo sapiens) (UniProt P01116); test: Inhibition of KRAS in human MCF7 cells assessed as reduction in Pan RAS protein level at 35 uM measured after 24 hrs by Western blot analysis relative to control; format: cell-based
[17] = biological target: GTPase KRas (Homo sapiens) (UniProt P01116); test: Inhibition of KRAS in human MCF7 cells assessed as reduction in phosphorylated MEK1/2 at Ser217/221 residues protein level at 35 uM measured after 24 hrs by Western blot analysis relative to control; format: cell-based
[18] = biological target: GTPase KRas (Homo sapiens) (UniProt P01116); test: Inhibition of KRAS in human MCF7 cells assessed as reduction in ERK1/2 137F5 protein level at 35 uM measured after 24 hrs by Western blot analysis relative to control; format: cell-based
[19] = biological target: GTPase KRas (Homo sapiens) (UniProt P01116); test: Inhibition of KRAS in human MDA-MB-231 cells assessed as reduction in phosphorylation of RAF measured after 24 hrs by Western blot analysis; format: cell-based
[20] = biological target: GTPase KRas (Homo sapiens) (UniProt P01116); test: Inhibition of KRAS in human MDA-MB-231 cells assessed as reduction in phosphorylation of MEK measured after 24 hrs by Western blot analysis; format: cell-based
[21] = tested on: MDA-MB-231; test: Induction of apoptosis in human MDA-MB-231 cells assessed as necrotic cells at 15 uM measured after 48 hrs by annexinV-FITC/propidium iodide staining based flow cytometry (reference value: 0.31 %); format: functional
[22] = tested on: MDA-MB-231; test: Induction of apoptosis in human MDA-MB-231 cells assessed as live cells at 25 uM measured after 48 hrs by annexinV-FITC/propidium iodide staining based flow cytometry (reference value: 99 %); format: functional
[23] = tested on: MDA-MB-231; test: Induction of apoptosis in human MDA-MB-231 cells assessed as late apoptotic cells at 25 uM measured after 48 hrs by annexinV-FITC/propidium iodide staining based flow cytometry (reference value: 0 %); format: functional
[24] = tested on: MCF7; test: Induction of apoptosis in human MCF7 cells assessed as live cells at 15 uM measured after 48 hrs by annexinV-FITC/propidium iodide staining based flow cytometry (reference value: 99.71 %); format: functional
[25] = tested on: MCF7; test: Induction of apoptosis in human MCF7 cells assessed as late apoptotic cells at 15 uM measured after 48 hrs by annexinV-FITC/propidium iodide staining based flow cytometry (reference value: 0.17 %); format: functional
[26] = tested on: MCF7; test: Induction of apoptosis in human MCF7 cells assessed as live cells at 25 uM measured after 48 hrs by annexinV-FITC/propidium iodide staining based flow cytometry (reference value: 99.71 %); format: functional
[27] = tested on: MCF7; test: Induction of apoptosis in human MCF7 cells assessed as early apoptotic cells at 25 uM measured after 48 hrs by annexinV-FITC/propidium iodide staining based flow cytometry (reference value: 0.04 %); format: functional
[28] = tested on: MCF7; test: Induction of apoptosis in human MCF7 cells assessed as late apoptotic cells at 25 uM measured after 48 hrs by annexinV-FITC/propidium iodide staining based flow cytometry (reference value: 0.17 %); format: functional
[29] = tested on: MDA-MB-231; test: Induction of necrosis in human MDA-MB-231 cells; format: functional, cell-based
[30] = tested on: MDA-MB-231; test: Cell cycle arrest in human MDA-MB-231 cells assessed as accumulation at G1 phase at 15 uM measured after 48 hrs by propidium iodide/RNase staining based flow cytometry (reference value: 74.56 %); format: functional
[31] = tested on: MDA-MB-231; test: Cell cycle arrest in human MDA-MB-231 cells assessed as accumulation at S phase at 15 uM measured after 48 hrs by propidium iodide/RNase staining based flow cytometry (reference value: 22.09 %); format: functional
[32] = tested on: MDA-MB-231; test: Cell cycle arrest in human MDA-MB-231 cells assessed as accumulation at G2 phase at 25 uM measured after 48 hrs by propidium iodide/RNase staining based flow cytometry (reference value: 3.35 %); format: functional
[33] = tested on: MDA-MB-231; test: Cell cycle arrest in human MDA-MB-231 cells assessed as accumulation at S phase at 25 uM measured after 48 hrs by propidium iodide/RNase staining based flow cytometry (reference value: 22.09 %); format: functional

Q: With `O=P(Oc1ccccc1)(Oc1ccccc1)OC1C2OC3(c4ccccc4)OC(C2O)C(O)C1O3` (centres undefined) as the molecule, how does the Activity [1] read?
A: Its Activity is “Dose-dependent effect”.

Q: What about the IC50 ([1]; MCF7, 48 h) of the same molecule?
A: Its IC50 is 35.1 µM.

Q: And the IC50 [2]?
A: Its IC50 is 39.5 µM.

Q: And the fold change (FC) [3]?
A: Its fold change (FC) is 1.16.

Q: What about the fold change (FC) [4] of the same molecule?
A: The fold change (FC) was 0.85.

Q: And the fold change (FC) [5]?
A: The fold change (FC) was 0.99.

Q: What about the fold change (FC) [6] of the same molecule?
A: The fold change (FC) was 0.14.

Q: What about the fold change (FC) [7] of the same molecule?
A: Its fold change (FC) is 0.97.

Q: What about the fold change (FC) [8] of the same molecule?
A: Its fold change (FC) is 1.

Q: What about the fold change (FC) [9] of the same molecule?
A: Its fold change (FC) is 0.46.

Q: What about the fold change (FC) [10] of the same molecule?
A: Its fold change (FC) is 0.17.

Q: And the fold change (FC) [11]?
A: Its fold change (FC) is 1.06.

Q: And the fold change (FC) [12]?
A: Its fold change (FC) is 0.91.

Q: What about the fold change (FC) [13] of the same molecule?
A: The fold change (FC) was 1.06.

Q: What about the fold change (FC) [14] of the same molecule?
A: The fold change (FC) was 1.12.

Q: And the fold change (FC) [15]?
A: The fold change (FC) was 0.91.

Q: What about the fold change (FC) [16] of the same molecule?
A: Its fold change (FC) is 1.11.

Q: And the fold change (FC) [17]?
A: The fold change (FC) was 0.86.

Q: What about the fold change (FC) [18] of the same molecule?
A: Its fold change (FC) is 1.11.

Q: And the inhibition [19]?
A: The inhibition was “Dose-dependent effect”.

Q: And the inhibition [20]?
A: Its inhibition is “Dose-dependent effect”.

Q: And the Activity [21]?
A: The Activity was 7.3%.

Q: And the Activity [22]?
A: The Activity was 62.65%.

Q: What about the Activity [23] of the same molecule?
A: Its Activity is 0.64%.

Q: What about the Activity [24] of the same molecule?
A: The Activity was 32.46%.

Q: What about the Activity [25] of the same molecule?
A: Its Activity is 0.28%.

Q: And the Activity [26]?
A: The Activity was 36.83%.

Q: And the Activity [27]?
A: The Activity was 1.23%.

Q: And the Activity [28]?
A: The Activity was 0.49%.

Q: And the Activity [29]?
A: Its Activity is “Dose-dependent effect”.

Q: What about the Activity [30] of the same molecule?
A: Its Activity is 34.45%.

Q: And the Activity [31]?
A: Its Activity is 44.74%.

Q: And the Activity [32]?
A: Its Activity is 0%.

Q: And the Activity [33]?
A: Its Activity is 40.07%.
